{"source": "paper PMC8903076", "about": "(Journal of medicinal chemistry, 2021)", "molecular_target": "human GCGR (Homo sapiens, UniProt P47871)", "sequence (P47871 26-477)": "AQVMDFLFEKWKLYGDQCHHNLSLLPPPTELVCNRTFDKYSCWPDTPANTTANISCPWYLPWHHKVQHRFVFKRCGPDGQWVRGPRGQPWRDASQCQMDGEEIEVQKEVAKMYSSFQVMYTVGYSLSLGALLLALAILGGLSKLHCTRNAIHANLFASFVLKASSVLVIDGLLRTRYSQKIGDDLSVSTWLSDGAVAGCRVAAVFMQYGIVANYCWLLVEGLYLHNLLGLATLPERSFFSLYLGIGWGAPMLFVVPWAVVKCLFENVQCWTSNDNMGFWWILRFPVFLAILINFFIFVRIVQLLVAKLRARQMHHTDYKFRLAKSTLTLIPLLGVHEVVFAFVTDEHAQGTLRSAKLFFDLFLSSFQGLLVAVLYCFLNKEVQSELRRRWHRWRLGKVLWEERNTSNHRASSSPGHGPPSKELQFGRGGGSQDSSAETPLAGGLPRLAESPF", "assay": "CRE-luciferase reporter assay", "type": "cell-based", "settings": "HEK293 cells stably expressing human GCGR", "data": [{"substance": "H-HAibQGTFTSDYSKYLDSRRAQDFVK^TailWLX^1T-NH2 [compound 18]", "values": [{"measurement": "activity in activating GCGR (in words)", "result": "completely lost the activity"}]}]}
